We go through three molecules from publication PMC5430895 (Scientific Reports, 2017).

Data set [1] relates to saracatinib uptake into RASF. Put plainly: Uptake competition experiments: saracatinib uptake by RASF in presence of transporter substrates. The settings on record: saracatinib 10 µM.
Substrate in data set [2]: CN1CCN(CCOc2cc(OC3CCOCC3)c3c(Nc4c(Cl)ccc5c4OCO5)ncnc3c2)CC1
The data set can be described thus: cells, lysate or membranes named. The settings on record: other: hOCTN1-HEK293 cells, 10 min incubation; pH 7.4; 37.0 °C.

What is called Km is the concentration of substrate that gives half-maximal velocity.

On to `C[N+](C)(C)[C@@H](Cc1c[nH]c(=S)[nH]1)C(=O)[O-]` [Ergothioneine, L-(+)-ergothioneine], for which, in data set [1] (ergothioneine 40 µM (OCTN1 substrate)), the “net accumulation rate of saracatinib, % of the control” value was 53%. For the molecule `C[n+]1ccc(-c2ccccc2)cc1.[I-]` [MPP^+], the “effect on saracatinib uptake” value in data set [1] (MPP+ 20 µM (inhibitor of hOCT1-3)) is “did not influence saracatinib uptake”.

B1: hOCTN1 (Homo sapiens) (protein)
chain: MRDYDEVIAFLGEWGPFQRLIFFLLSASIIPNGFNGMSVVFLAGTPEHRCRVPDAANLSSAWRNNSVPLRLRDGREVPHSCSRYRLATIANFSALGLEPGRDVDLGQLEQESCLDGWEFSQDVYLSTVVTEWNLVCEDNWKVPLTTSLFFVGVLLGSFVSGQLSDRFGRKNVLFATMAVQTGFSFLQIFSISWEMFTVLFVIVGMGQISNYVVAFILGTEILGKSVRIIFSTLGVCTFFAVGYMLLPLFAYFIRDWRMLLLALTVPGVLCVPLWWFIPESPRWLISQRRFREAEDIIQKAAKMNNIAVPAVIFDSVEELNPLKQQKAFILDLFRTRNIAIMTIMSLLLWMLTSVGYFALSLDAPNLHGDAYLNCFLSALIEIPAYITAWLLLRTLPRRYIIAAVLFWGGGVLLFIQLVPVDYYFLSIGLVMLGKFGITSAFSMLYVFTAELYPTLVRNMAVGVTSTASRVGSIIAPYFVYLGAYNRMLPYIVMGSLTVLIGILTLFFPESLGMTLPETLEQMQKVKWFRSGKKTRDSMETEENPKVLITAF
As to B1, the Km in data set [2] worked out at 42 ± 11 µM.
